According to the supplement of paper PMC11997997:

How the values were obtained:
[1] = test system: murine bone marrow-derived macrophages; assay: area under cytotoxicity dose-response curve (AUC (% cytotoxicity x dose, relative)); higher = more cytotoxic; conditions: duration: 6 days; dose range: 0.13-80 uM, 8 points
Procedure, shortened: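 Values are the area under the cytotoxicity dose–response curve, calculated with GraphPad Prism version 10. Primary murine bone marrow-derived macrophages were exposed to final concentrations of 80–0.13 μM for 6 days, and viability was read by CellTiter-Glo luminescence with normalisation to vehicle and positive control wells.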

[2] = test system: Mycobacterium tuberculosis CDC1551 (intracellular, in murine BMDM); assay: area under intracellular growth-inhibition dose-response curve (AUC (% inhibition x dose, relative)); higher = more potent; conditions: duration: 6 days; dose range: 0.13-80 uM, 8 points
Procedure, shortened: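 The value is the area under the growth-inhibition dose–response curve, calculated in GraphPad Prism. Primary murine bone marrow-derived macrophages were seeded in 384-well opaque plates and, 24 h later, infected for 1 h with luciferase-expressing M. tuberculosis CDC1551 at multiplicity of infection 1. Cells were then exposed for 6 days to an 8-dose, 2.5-fold series (final 80–0.13 μM). Growth was read with the Bright-Glo luciferin assay and normalised to a reference drug control and to the lowest-concentration wells.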

| Structure (SMILES) | area under cytotoxicity dose-response curve [1] | area under intracellular growth-inhibition dose-response curve [2] |
| --- | --- | --- |
| CC1CC(C)CN(C(=O)c2ccc(CNc3c(N4CCCC4)c(=O)c3=O)cc2)C1 (stereo unspecified) | 166 | 179 |
| CCOC(=O)c1c(C)nc2ccc(C)cn12 | 24.3 | 155 |
| CCOc1ccc2ccccc2c1/C=N/NC(=O)c1ccncc1 | < 0 | 270 |
| CCOC(=O)c1oc2nc(C(C)C)c3c(c2c1N)CC(C)(C)OC3 | 80.3 | 124 |
| COc1cc(/C=N\NC(=O)c2sc(N)nc2C)cc(OC)c1OC | 140 | 35.1 |
| O=C(NCc1ccccc1Cl)c1ccc(Br)o1 | < 0 | 120 |
| CCN(C(=O)COC(=O)c1nc(Cl)ccc1Cl)c1c(N)n(Cc2ccccc2)c(=O)[nH]c1=O | 73 | 28.6 |
| COc1cc(-c2cc(C(=O)Nc3ccncc3)c3ccccc3n2)cc(OC)c1OC | 0.318 | 32.8 |
| COc1cc(OC)c(/C=N/NC(=O)c2ccncc2)c(OC)c1 | 60.6 | 272 |
| O=C(CNC(=O)c1ccc([N+](=O)[O-])cc1)N/N=C\c1ccc(OC(=O)c2ccccc2)cc1 | < 0 | 109 |
| CCOC(=O)c1cn(Cc2cccc(C)c2)nn1 | 56.6 | 98.1 |
| O=C(c1ccc([N+](=O)[O-])o1)N1CCN(Cc2ccccc2)CC1 | 4.42 | 151 |
| CCc1ccc([C@@H]2CC=C(C(=O)O)[C@H](c3ccc(C(C)(C)C)cc3)N2S(=O)(=O)c2ccc(C)cc2)cc1 | 78.6 | 84.8 |
| O=C1NC(=S)S/C1=C\C=C\c1ccc([N+](=O)[O-])o1 | 71.5 | 2.55 |
| COc1ccc(C(=O)Oc2cc(/C=N/NC(N)=S)ccc2OC)cc1 | 53.3 | 211 |
| CN1CCN2c3ccccc3Cc3ccccc3C2C1.Cl (stereo unspecified) | < 0 | 118 |
| Cc1cc(O)c2c(n1)c(C)cc1[nH]c(C)c(C)c12 | < 0 | 137 |
| O=C(c1ccc([N+](=O)[O-])o1)N1CCN(c2nc3ccc(F)cc3s2)CC1 | 12.7 | 22.9 |
| CCC(=O)NC(=S)Nc1ccc(N2CCN(C(=O)c3ccc(Cl)cc3)CC2)cc1 | 3.79 | 269 |
| NC(=S)N/N=C/c1ccc(-c2cc(Cl)cc(Cl)c2)o1 | 41.6 | 230 |
| Br.COc1ccc(C2=CSC(/N=C/c3ccc(F)cc3)=NN2)cc1 | 49.1 | 182 |
| O=C(NCC1CCCCC1)c1ccc([N+](=O)[O-])cc1 | 77.6 | 239 |
| O=C(COC(=O)Cc1cccs1)NCC(=O)Nc1ccc(F)cc1 | 45.1 | < 0 |
| COc1ccc(CCNC(=O)c2c(C)nc3ccccn23)cc1 | < 0 | 198 |
| Cc1ccc(S(=O)(=O)N2CCOCC2)cc1C(=O)OCC(=O)NC1CC1 | 7.09 | 97.3 |
| COc1ccc(OC)c(/C=N/NC(=O)c2ccncc2)c1 | 66.9 | 254 |
| CC(=O)c1cc(NC(=O)c2ccccc2)c(=O)oc1/C=C/N(C)C | 30.2 | 160 |

| Structure (SMILES) | area under cytotoxicity dose-response curve [1] | area under intracellular growth-inhibition dose-response curve [2] |
| --- | --- | --- |
| FC(F)(F)c1nnc2ccc(Cl)nn12 | 62.7 | 36.2 |
| O=C(COC(=O)c1ccc([N+](=O)[O-])o1)Nc1ccc(F)cc1 | < 0 | 144 |
| CCCn1c(-c2cccs2)nc2ccccc21 | < 0 | 103 |
| CSc1nsc(SCC(=O)N2CCCCC2)n1 | 59 | 93.5 |
| Cn1nc([N+](=O)[O-])nc1Oc1ccc(C(C)(C)C)cc1 | 40.1 | 206 |
| O=C(NCc1ccco1)c1cc2ccccc2o1 | 135 | 105 |
| Nc1nc(F)nc2c1ncn2[C@@H]1O[C@H](CO)[C@@H](O)[C@H]1O | 236 | < 0 |
| CC1CCC(C(C)C)C(OC(=O)Cn2c(-c3ccccc3)[n+](C)c3ccccc32)C1.[Cl-] (stereo unspecified) | 12.5 | 124 |
| CCCCN1CNC(=S)N(c2ccc(C(=O)OCC)cc2)C1 | < 0 | 270 |
| CCOC(=O)c1ccc(NC(=O)c2cc3c(s2)CCC3)cc1 | 11.2 | 234 |
| O=C(NCc1ccc2c(c1)OCO2)c1ccc(Br)o1 | 76.4 | 174 |
| CC1CCN(C(=O)C2CCC(CNc3c(N4CCCCC4)c(=O)c3=O)CC2)CC1 (stereo unspecified) | 8.86 | 87.1 |
| CCN1CCN(c2cc3c(cc2F)c(=O)c(C(=O)O)cn3C2CC2)CC1 | 7.13 | 258 |
| O=C(NCc1ccc(F)cc1)c1cc2ccccc2o1 | 48.5 | 254 |
| O=C(c1ccc([N+](=O)[O-])o1)N1CCN(c2nc3c(Cl)cccc3s2)CC1 | 124 | 18.1 |
| O=C(OCC(=O)c1ccc(Cl)s1)c1cncc(Br)c1 | 95.6 | 0.884 |
| CCCn1nnc(NC(=S)NC(=O)c2ccccc2OC)n1 | 25.9 | 64.2 |
| O=[N+]([O-])c1nn(-c2ccc(Cl)cc2)[n+]([O-])c1NCc1ccncc1 | 11.5 | 30.7 |
| O=C(NCC1CC1(Cl)Cl)Nc1ccc(Cl)c(Cl)c1 (stereo unspecified) | 111 | 239 |
| O=C(COC(=O)c1cc(Cl)nc(Cl)c1)NCCc1ccc(F)cc1 | 4.71 | 108 |
| COc1cccc(OCC(=O)NC2CCCCCC2)c1 | 22.4 | 266 |
| Cc1cc(C)n(CC(=O)NC2C(=O)N3C(C(=O)O)=C(CSc4nnc(C)s4)CSC23)n1 (stereo unspecified) | 11.2 | 122 |
| CC1CC(C)CN(C(=O)C2CCC(CNc3c(N4CCCCC4)c(=O)c3=O)CC2)C1 (stereo unspecified) | 0.615 | 125 |
| O=C1CN(C(=O)COC(=O)c2c(F)cccc2Cl)c2ccccc2N1 | < 0 | 148 |
| CC(C)(C)C(=O)/C=C/Nc1ccccc1O | 5.21 | 88 |
| COc1ccc(-c2[nH]ncc2/C=N/NC(=O)c2ccncc2)c(OC)c1 | < 0 | 218 |
